Reference: paper PMC7948479, “Allostery in the nitric oxide dioxygenase mechanism of flavohemoglobin” (The Journal of Biological Chemistry, 2020)

How the values were obtained:
flavoHb-NOD = biological target: T1, flavoHb-NOD (Escherichia coli, UniProt P24232); experiment: H2O2 sensitivity of the flavoHb-NOD; assay type: biochemical; conditions: for protection of flavoHb-NOD against H2O2: resting state, 2 mM ascorbate or 10 µM miconazole
T1 construct: made in house; host or cells: E. coli hmp deletion strain AG103 carrying pUC19hmp
Experimental: Figure S5. H2O2 sensitivity of the flavoHb-NOD. NOD activity of flavoHb is rapidly lost upon exposure to H2O2 (panel A), and heme absorbance decreases with H2O2 exposure (panel B). The peroxidizable substrate ascorbate and the heme ligand miconazole (6) afford protection thus […]
(A) FlavoHb (0.1 µM heme) […]
was exposed to 0 (○), 50 (◼) or 200 µM H2O2 (●). Catalase (1000 U/mL) was added at various times to terminate reactions, and NOD activity was measured as described under Experimental Procedures. (B) Ferric flavoHb (5 µM heme) was exposed to 200 µM H2O2, and spectra were recorded at 2 min intervals (solid lines) or after a 10 min exposure in the presence of 2 mM ascorbate (dashed line) or 10 µM miconazole (dotted line). Reactions were at 37°C in 50 mM potassium phosphate buffer, pH 7.8, containing 0.1 mM EDTA. Error bars represent the S.D. of […]
(1 picture or pasted object on this page, not shown here)

E. coli flavoHb-NOD [1] = biological target: E. coli flavoHb-NOD (Escherichia coli, UniProt P24232); assay type: biochemical; set-up: made in house; host or cells: E. coli hmp deletion strain AG103 carrying pUC19hmp
Source text: We have formulated a steady-state velocity equation for the catalytic cycle with the activating trigger step (KT) (Equation 1).(1) v= Vmax(a) where a=([NO]^2[O2]^2/K1K2K3KTK4)/(1+([O2]/K1)+([O2]^2/K1K2)+(([O2]^2[NO])/K1K2K3)+(([O2]^2[NO])/K1K2K3KT)+(([O2]^2[NO]^2)/K1K2K3KTK4))
(2) v= Vmax(a)(b) where b=[NO]/(K3+([NO](1+((K2/[O2])(1+([NO]/Ki(NO)))))))
In addition, we have introduced a factor and equilibrium constant Ka(O2) for rare situations in which O2 causes an additional NO-independent activation of catalysis possibly by occupying unique binding sites or cavities (Equation 5).
(§1) NOD activity was measured amperometrically in 100 mM phosphate buffer, pH 7.0, containing 0.3 mM EDTA, 100 μg/ml bovine serum albumin (BSA) (Fraction V), 100 μM NADH, 0.1 μM FAD with NO, O2, and N2 mixtures added as described ([4], [72]). NADH oxidase activity was followed spectrophotometrically at 340 nm in a 1.0-ml cuvette containing 90 mM Tris chloride buffer, pH 8.2, 100 μM NADH, 200 μM O2, 0.1 μM FAD, 100 μg/ml BSA, and 0.3 mM EDTA and incubated at 37 °C. Cytochrome b5 reductase activity was assayed at 37 °C by following the rate of absorbance increase at 555 nm in a 1.0-ml reaction buffered with 90 mM Tris chloride, pH 8.2, and containing 10 μM ferric cytochrome b5, 200 μM O2, 20 μM NADH, 0.1 μM FAD, 100 μg/ml BSA, and 0.3 mM EDTA. TMAO reductase activity was assayed by following the absorbance decrease at 340 nm in a 1.0-ml anaerobic reaction containing 12 U Aspergillus niger glucose oxidase, 5 mM glucose, 260 U catalase, 400 mM TMAO, 100 μM NADH, 0.1 μM FAD, 100 μg/ml BSA, and 0.3 mM EDTA in 90 mM Tris chloride pH 8.2 and incubated at 37 °C. Ngb reductase activity was assayed by following the absorbance increase at 424 nm in a 1.0-ml anaerobic reaction containing 12 U glucose oxidase, 5 mM glucose, 260 U catalase, 5 μM Ngb, 50 μM NADH, 0.1 μM FAD, 100 μg/ml BSA, and 0.3 mM EDTA in 90 mM Tris chloride buffer, pH 8.2, and incubated at 37 °C. Methyl viologen reductase activity was assayed by following the formation of the blue cation radical at 603 nm and by applying an extinction coefficient of 13,300 M^−1 cm^−1 in a 1.0-ml anaerobic reaction buffered with 10 mM potassium phosphate, pH 7.0, and containing 12 U glucose oxidase, 5 mM glucose, 260 U catalase, 100 μM NADH, 0.1 μM FAD, 100 μg/ml BSA, 0.3 mM EDTA, and 200 mM sodium chloride and incubated at 37 °C. NO reductase activity was assayed amperometrically at 37 °C in a 1.0-ml anaerobic reaction containing 2 μM NO, 100 μM NADH, 0.1 μM FAD, 12 U glucose oxidase, 5 mM glucose, 260 U catalase, 100 μg/ml BSA, and 0.3 mM EDTA buffered with 10 mM potassium phosphate pH 7.0. CO effects were tested at a final concentration of 50 μM as diluted from a 1 mM stock in water. All activities are reported relative to the heme content of flavoHb.
Rate constants were estimated from the model kinetic equation using Python programming with successive approximations to optimize fits with varying NO and O2 concentrations. Vmax, K1, K2, KT, and Kii(NO) values were treated as independent variables for a given flavoHb while allowing K3, K4, and Ki(NO) to vary over limited ranges with varying O2 concentration. Kii(NO) was estimated from NO inhibition at saturating O2 concentrations.

E. coli flavoHb-NOD [2] = biological target: E. coli flavoHb-NOD (Escherichia coli, UniProt P24232, K84N); conditions: 1000 U of catalase
Experimental: as §1

E. coli flavoHb-NOD [3] = conditions: read-out: Ki(CO); cited from earlier work
TMAO reductase activity = assay type: biochemical; conditions: CO 50 μM; AsnF7 variant
[4] = biological target: flavoHb heme (Fe^2+ / Fe^3+) (Escherichia coli, UniProt P24232, Y29F); conditions: PheB10 variant; 100 μM CO
Experimental: (§2) FAD and heme reduction were monitored by following the changes in flavoHb absorbance at 460 and 430 nm, respectively, with stopped-flow rapid mixing of 50 μM NADH and 10 μM flavoHb in N2-purged buffer ([4]). O2, NO, and CO association rate constants were determined by photolyzing 50 μM of the respective ferrous flavoHb species with a 300-ns pulse from a 577-nm laser and by spectrophotometrically following ligand reassociation in O2-, NO-, or CO-saturated buffer unless otherwise indicated ([4], [5]). […] Binding of NO was measured by the change of absorbance at 422 nm by applying a difference extinction coefficient of 0.040 μM^−1 cm^−1. O2 and CO dissociation rate constants were determined by stopped-flow rapid mixing with either CO or NO displacement ([4], [5]). The cuvette path length was 1.0 cm. All reactions were at 20 °C in filtered 100 mM sodium phosphate buffer, pH 7.0, containing 0.3 mM EDTA. Catalase (1000 U/ml) was included in all reactions containing O2 to scavenge H2O2 produced by the NADH oxidase activity of flavoHb and to regenerate O2.

[5] = biological target: flavoHb heme (Fe^2+ / Fe^3+) (Escherichia coli, UniProt P24232)
Experimental: as §2

[6] = biological target: flavoHb heme (Fe^2+ / Fe^3+) (Escherichia coli, UniProt P24232, Q53H); conditions: HisE7 variant; 100 μM CO
Experimental: as §2

For `OO` [H2O2], the “effect of H2O2 on flavoHb-NOD activity” value (flavoHb-NOD; 50 or 200 µM H2O2) was “sensitive”.
In the case of `O=O` [O2], the “inhibition by O2 with respect to NO” value (E. coli flavoHb-NOD [1]) is reported as “no competitive inhibition” and the “selectivity for O2 over N2” value (E. coli flavoHb-NOD [1]) is reported as “greater than 80 fold”.
With `Clc1ccc(COC(Cn2ccnc2)c2ccc(Cl)cc2Cl)c(Cl)c1` (stereo not shown) [miconazole] the “protection of flavoHb-NOD against H2O2” value (flavoHb-NOD) was “protect”.
In the case of Catalase, the “protection of AsnF7 NOD activity from inactivation” value (E. coli flavoHb-NOD [2]) is reported as “modest protection”.
In the case of `[C-]#[O+]` [CO, reference compound], the Ki (E. coli flavoHb-NOD [3]) is given as about 1000 nM, the “inhibition of TMAO reduction” value (TMAO reductase activity) is given as about 90% and the “inhibition of O2 migration and binding in the slow phase” value [4] is given as about 50%. For the same compound, the “inhibition of fast phase of O2 rebinding” value [5] was about 10%, the “inhibition of slow phase of O2 rebinding” value [5] was 86% and the “inhibition of O2 migration and binding in the slow phase” value [6] was about 50%.
With nitric oxide [NO] the “inhibition of NOD activity by NO” value (E. coli flavoHb-NOD [1]; 1:100 ratio of NO to O2, reversible, competitive with O2) was “roughly 50%”.
For `O=C1O[C@H]([C@@H](O)CO)C(O)=C1O` [ascorbate], the “protection of flavoHb-NOD against H2O2” value (flavoHb-NOD) was “protect”.
